The nature of series [1]: Half life in mouse plasma at 10 umol/L measured up to 4 hrs by mass spectrometry. Format: ADME, cell-free.
Series [2] can be described thus: Induction of neurite growth in rat hippocampal neurons incubated for 48 hrs by high content analysis. In kind it is functional, cell-based. Conditions: Hippocampal neurone.
Series [3] can be described thus: Induction of rat DRG neuron growth assessed as increase in total neurite length at 1 uM incubated for 24 hrs by […] staining based assay relative to control. Format: functional.
Series [4] concerns Rattus norvegicus. In words: Induction of optic nerve axon regeneration in Sprague-Dawley rat model of optic nerve crush injury assessed as increase in average length of the longest regenerating axons at 100 uM administered intravitreally on day 3,7 and 10 post injury and measured on day 13 post injury by Alexa Fluor 488/CTB-488 staining based confocal microscopic analysis relative to control. Format: functional.

Series [5] in a line: Induction of CSPG-treated C57BL/6J mouse DRG neuron growth at 25 uM incubated for 24 hrs by Alexa Fluor 488 staining based assay relative to control. Format: functional.
Series [6] in a line: Induction of CSPG-treated human induced sensory neuron growth at 2 uM for 24 hrs by immunostaining method relative to control. Format: functional.

Molecules are shown by their SMILES.

One may read the half-life as how long it takes for the measured level to halve. `COc1ccc(O)c(C(=O)c2ccc(C(=O)O[C@@H]3CCCNC[C@H]3NC(=O)c3ccncc3)cc2)c1F` had a half-life at 10 µM in series [1] of less than 1 min.

As usually defined, the EC50 is the concentration giving half of the maximal effect. A higher EC50 goes with a need for much substance. Compound `O=S(=O)(c1cccc2c(I)cccc12)N1CCCNCC1` had an EC50 in series [2] of 74 nM.

Take `Cc1ccc(-c2nc(NCCOCCOCCN)nc(N3CCN(c4ccccn4)CC3)n2)cc1`: the Activity in series [3] is listed as 50%; in series [4], 56%.

Regarding `COc1ccc([C@@H]2Sc3ccccc3N(CCN(C)C)C(=O)[C@@H]2OC(C)=O)cc1` [DILTIAZEM], the “fold change (FC)” value is recorded as 2 in series [5] and 1.5 in series [6].

For the origin of these results see ChEMBL document CHEMBL4376819, “The Rise of Molecules Able To Regenerate the Central Nervous System” (J Med Chem, 2020).
